Data on 10 molecules can be found in ChEMBL document CHEMBL4823265, “Benzophenones from Betula alnoides with Antiausterity Activities against the PANC-1 Human Pancreatic Cancer Cell Line” (J Nat Prod, 2021).

Active and inactive are the calls of the source. The calls are words filed in the database; no cut-off is given here.

As usually defined, the inhibition is how much of the control response was suppressed.

The test system of series [1] is PANC-1. Nature of the series: Anti-austerity activity against human PANC-1 cells assessed as cell killing incubated for 24 hrs in nutrient deprived medium by CCK8 assay. The series is classed as functional.
For series [2], the system named is PANC-1. Nature of the series: Cytotoxicity against human PANC-1 cells assessed as inhibition of cell mobility at 5 to 10 uM incubated in nutrient deprived medium measured every 15 mins for 4 hrs by time-lapse live imaging based analysis. The series is classed as functional. To be noted: dose 5-10 µM.
Series [3] deals with PANC-1. Briefly: Inhibition of colony formation in human PANC-1 cells at 20 uM treated for 24 hrs followed by replacement with fresh DMEM medium and measured after 10 days by crystal violet staining based assay relative to control. The class given is functional.
Series [4] has as its system PANC-1. Nature of the series: Cytotoxicity against human PANC-1 cells assessed as swollen cell morphology by measuring red fluorescence emission incubated for 24 hrs in nutrient deprived medium by ethidium bromide/acridine orange double staining based fluorescence microscopic analysis. The class given is functional. To be noted: dose 5-10 µM.
Series [5] concerns PANC-1. Nature of the series: Inhibition of colony formation in human PANC-1 cells treated for 24 hrs followed by replacement with fresh DMEM medium and measured after 10 days by crystal violet staining based assay. The class given is functional, cell-based. To be noted: dose 10-40 µM.
The test system of series [6] is PANC-1. Nature of the series: Inhibition of colony formation in human PANC-1 cells at 40 uM treated for 24 hrs followed by replacement with fresh DMEM medium and measured after 10 days by crystal violet staining based assay relative to control. The class given is functional.
The subject of series [7] is PANC-1. Briefly: Cytotoxicity against human PANC-1 cells assessed as ruptured cell membrane by measuring red fluorescence emission incubated for 24 hrs in nutrient deprived medium by ethidium bromide/acridine orange double staining based fluorescence microscopic analysis. The class given is functional. To be noted: dose 5-10 µM.
The subject of series [8] is PANC-1. Briefly: Cytotoxicity against human PANC-1 cells assessed as membrane blebs by measuring red fluorescence emission incubated for 24 hrs in nutrient deprived medium by ethidium bromide/acridine orange double staining based fluorescence microscopic analysis. The series is classed as functional, cell-based. Particulars: dose 5-10 µM.
Series [9] concerns PANC-1. Briefly: Cytotoxicity against human PANC-1 cells assessed as reduction in cell viability incubated for 24 hrs in nutrient-rich DMEM medium by CCK8 assay. The class given is cell-based. To be noted: panc-1, 24 h. In general terms: Tetrazolium assays rely on reduction of a dye to a coloured formazan, in cell work by metabolically active cells.
Series [10] concerns PANC-1. Briefly: Cytotoxicity against human PANC-1 cells assessed as cell shrinkage at 5 to 10 uM incubated in nutrient deprived medium measured every 15 mins for 8 hrs by time-lapse live imaging based analysis. The series is classed as functional. To be noted: dose 5-10 µM.
For series [11], the system named is PANC-1. Briefly: Cytotoxicity against human PANC-1 cells assessed as cell death at 10 uM incubated in nutrient deprived medium measured every 15 mins for 23 hrs by time-lapse live imaging based analysis. The series is classed as functional.
Series [12] deals with PANC-1. Nature of the series: Cytotoxicity against human PANC-1 cells assessed as membrane blebbing at 10 uM incubated in nutrient deprived medium measured every 15 mins for 13 hrs by time-lapse live imaging based analysis. The series is classed as functional, cell-based.
Series [13] concerns PANC-1. Briefly: Inhibition of colony formation in human PANC-1 cells at 10 to 40 uM treated for 24 hrs followed by replacement with fresh DMEM medium and measured after 10 days by crystal violet staining based assay relative to control. The class given is functional. Particulars: dose 10-40 µM.

On to `COc1cc(C[C@H]2C(=O)OC[C@@H]2Cc2ccc(OC)c(OC)c2)ccc1O` [ARCTIGENIN], for which the PC50 with PANC-1 [1] was found to be 0.7 µM.
On to `CC(C)(O)[C@@H]1CC[C@@]2(C)C[C@@H]1c1c(O)cc(O)c(C(=O)c3ccccc3)c1O2`, for which the outcome in the series with PANC-1 [2], with PANC-1 [10], in the series on PANC-1 [11] and with PANC-1 [12] was Active. In the series with PANC-1 [3], this molecule had an inhibition at 20 µM of 45%. Besides, the Activity result in the series on PANC-1 [4] is “Dose-Dependent Effect”; with PANC-1 [7], “Dose-Dependent Effect”; in the series on PANC-1 [8], “Dose-Dependent Effect”; with PANC-1 [9], “Non-Toxic”. Moreover, in the series on PANC-1 [5], the inhibition result is “Dose-Dependent Effect”. Besides, at 40 µM the inhibition with PANC-1 [6] was 64%. In the series with PANC-1 [1], the PC50 came out at 4.9 µM.
Regarding `CC(C)=CCC/C(C)=C/CC[C@@]1(C)Oc2c(c(O)cc(O)c2C(=O)c2ccccc2)C[C@H]1O`, in the series with PANC-1 [9], the Activity entry was “Non-Toxic”. The PC50 in the series with PANC-1 [1] came out at 6.7 µM.
As to `CC(C)=CCC/C(C)=C/CC[C@]1(C)CCc2c(O)cc(O)c(C(=O)c3ccccc3)c2O1`, in the series on PANC-1 [9], the Activity entry is recorded as “Non-Toxic”. In addition, the PC50 in the series with PANC-1 [1] is 12.3 µM.
Take `O=C(c1ccccc1O)c1cc(O)ccc1O`: the Activity entry with PANC-1 [9] is “Non-Toxic”. Also, in the series with PANC-1 [1], the PC50 was found to be 42.5 µM.
With `CC(C)=CCC/C(C)=C/CC[C@@](C)(O)CCc1c(O)cc(O)c(C(=O)c2ccccc2)c1O`, the Activity result in the series with PANC-1 [4] was “Dose-Dependent Effect”; with PANC-1 [7], “Dose-Dependent Effect”; in the series with PANC-1 [8] it was “Dose-Dependent Effect”; in the series on PANC-1 [9] it was “Non-Toxic”. For the same molecule, the inhibition result in the series with PANC-1 [5] is “Dose-Dependent Effect”. For the same molecule, in the series with PANC-1 [1], the PC50 amounted to 5.9 µM. Besides, the “inhibition (INH)” value with PANC-1 [13] is on record as more than 60%.
Turning to `CC(C)=CCC/C(C)=C/CC/C(C)=C/Cc1c(O)cc(O)c(C(=O)c2ccccc2)c1O`, the Activity result with PANC-1 [9] was “Non-Toxic”. Moreover, the PC50 in the series on PANC-1 [1] amounted to 8.3 µM.
The matching figures for `COc1cccc2c(=O)c3c(O)cccc3oc12`: “Non-Toxic” and 61 µM.
Consider `COc1cc2c(=O)c3ccccc3oc2cc1O`, for which the Activity entry in the series on PANC-1 [9] is “Non-Toxic”. Moreover, the PC50 with PANC-1 [1] was more than 100 µM.
Consider `O=c1c2ccc(O)cc2oc2ccc(O)cc12`, for which the Activity result in the series with PANC-1 [9] is “Non-Toxic”. Also, the PC50 with PANC-1 [1] was 45.2 µM.
